Reference: the supplement of paper PMC10307832

Tests used:
Assay in all cases: relative viability (nuclei count vs DMSO), 5 days (fraction); higher = more cells survive
[1] = compound: Nc1ncn([C@H]2C[C@H](O)[C@@H](CO)O2)c(=O)n1 [Decitabine] + CCNC(=O)c1noc(-c2cc(C(C)C)c(O)cc2O)c1-c1ccc(CN2CCOCC2)cc1 [Luminespib] (partner 0.01 µM)
Outline: (§1)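 A single step with final 0.05% Triton X-100, 1% formaldehyde and 1 ug/ml Hoechst fixed the cells and stained nuclei 5 days after treatment. Lung cancer cell lines in 1536-well plates had been treated by pin tool the day after seeding with one drug alone or a fixed anchor-drug dose plus five library-drug doses (not always all listed) in √10 steps, and nuclei were counted on 4× images. Relative viability is the ratio of nuclei in treated wells to nuclei in vehicle wells, taken as the median of duplicate plates.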

[2] = compound: Nc1ncn([C@H]2C[C@H](O)[C@@H](CO)O2)c(=O)n1 [Decitabine] + N=C(N)NC(=N)NCCc1ccccc1 [Phenformin] (partner 250 µM)
Outline: as §1

[3] = compound: O=C(C[C@H]1NCCC[C@@H]1O)Cn1cnc2cc(Br)c(Cl)cc2c1=O (racemic) [Halofuginone] + COc1cccc2cc(-c3nc([C@H]4CC[C@H](C(=O)O)CC4)n4ncnc(N)c34)[nH]c12 [OSI-027] (partner 0.5 µM)
Outline: as §1

[4] = compound: O=C(C[C@H]1NCCC[C@@H]1O)Cn1cnc2cc(Br)c(Cl)cc2c1=O (racemic) [Halofuginone] + C[C@@H](Oc1cc(-c2cnn(C3CCNCC3)c2)cnc1N)c1c(Cl)ccc(F)c1Cl [Crizotinib] (partner 1 µM)
Outline: as §1

| Cell Line | relative viability ([1]; first compound 0.04 µM) | relative viability ([1]; first compound 0.1265 µM) | relative viability ([1]; first compound 0.4 µM) | relative viability ([1]; first compound 1.265 µM) | relative viability ([1]; first compound 4 µM) | relative viability ([2]; first compound 0.04 µM) | relative viability ([2]; first compound 0.1265 µM) | relative viability ([2]; first compound 0.4 µM) | relative viability ([2]; first compound 1.265 µM) | relative viability ([2]; first compound 4 µM) | relative viability ([3]; first compound 0.001 µM) | relative viability ([3]; first compound 0.003162 µM) | relative viability ([3]; first compound 0.01 µM) | relative viability ([3]; first compound 0.03162 µM) | relative viability ([3]; first compound 0.1 µM) | relative viability ([4]; first compound 0.001 µM) | relative viability ([4]; first compound 0.003162 µM) | relative viability ([4]; first compound 0.01 µM) | relative viability ([4]; first compound 0.03162 µM) | relative viability ([4]; first compound 0.1 µM) |
| --- | --- | --- | --- | --- | --- | --- | --- | --- | --- | --- | --- | --- | --- | --- | --- | --- | --- | --- | --- | --- |
| NCI-H23 | 0.215 | 0.213 | 0.202 | 0.199 | 0.203 | 0.579 | 0.548 | 0.297 | 0.242 | 0.244 | 0.755 | 0.554 | 0.545 | 0.441 | 0.344 | 0.582 | 0.724 | 0.486 | 0.609 | 0.218 |
| NCI-H322M | 0.77 | 0.835 | 0.669 | 0.441 | 0.489 | 0.647 | 0.745 | 0.6 | 0.478 | 0.549 | 0.596 | 0.652 | 0.488 | 0.49 | 0.346 | 0.982 | 0.911 | 0.906 | 1.01 | 0.77 |
| NCI-H358 | 0.073 | 0.206 | 0.247 | 0.199 | 0.1 | 0.246 | 0.258 | 0.168 | 0.148 | 0.136 | 0.972 | 0.836 | 0.664 | 0.267 | 0.107 | 0.832 | 0.678 | 0.467 | 0.253 | 0.0914 |
| NCI-H441 | 0.271 | 0.371 | 0.337 | 0.293 | 0.256 | 0.494 | 0.428 | 0.306 | 0.289 | 0.231 | 0.737 | 0.583 | 0.591 | 0.647 | 0.336 | 0.967 | 1.1 | 0.677 | 0.694 | 0.311 |
| NCI-H460 | 0.0345 | 0.0356 | 0.0279 | 0.034 | 0.0328 | 0.473 | 0.473 | 0.472 | 0.223 | 0.157 | 0.715 | 0.728 | 0.614 | 0.557 | 0.131 | 1.05 | 1.06 | 0.866 | 0.409 | 0.0383 |
| NCI-H520 | 0.212 | 0.214 | 0.214 | 0.254 | 0.239 | 0.42 | 0.347 | 0.37 | 0.328 | 0.288 | 0.311 | 0.3 | 0.258 | 0.321 | 0.199 | 0.764 | 0.808 | 0.749 | 0.693 | 0.316 |
| NCI-H596 | 0.9 | 1.01 |  | 0.696 | 0.739 | 0.815 | 0.666 |  | 0.582 | 0.53 | 0.923 | 0.938 | 0.845 | 0.67 | 0.354 | 1.23 | 1.05 | 0.941 | 1.01 | 0.666 |
| NCI-H647 | 0.105 | 0.141 | 0.127 | 0.12 | 0.103 | 0.372 | 0.399 | 0.25 | 0.101 | 0.172 | 0.654 | 0.623 | 0.618 | 0.715 | 0.334 | 0.942 | 1.13 | 0.978 | 0.834 | 0.0795 |
